Results from patent publication US10597388B2, “Pyridazinone herbicides” (FMC CORPORATION, priority 2014, dated 2020).

Columns and labels:
Type in all cases: in vivo
[1] = test system: barnyardgrass (Echinochloa crus-galli); experiment: Test A greenhouse herbicide test, pre- and postemergence
Text: (§1) Seeds of plant species selected from barnyardgrass (Echinochloa crus-galli), kochia (Kochia scoparia), ragweed (common ragweed, Ambrosia elatior), ryegrass, Italian (Italian ryegrass, Lolium multiflorum), crabgrass, large (large crabgrass, Digitaria sanguinalis), foxtail, giant (giant foxtail, Setaria faberii), momingglory (Ipomoea spp.), pigweed (Amaranthus retroflexus), velvetleaf (Abutilon theophrasti), wheat (Triticum aestivum), and corn (Zea mays) were planted into a blend of loam soil and sand and treated preemergence with a directed soil spray using test chemicals formulated in a non-phytotoxic solvent mixture which included a surfactant.
(§2) At the same time, plants selected from these crop and weed species and also blackgrass (Alopecurus myosuroides), and galium (catchweed bedstraw, Galium aparine) were planted in pots containing the same blend of loam soil and sand and treated with postemergence applications of test chemicals formulated in the same manner. Plants ranged in height from 2 to 10 cm and were in the one- to two-leaf stage for the postemergence treatment. Treated plants and untreated controls were maintained in a greenhouse for approximately 10 d, after which time all treated plants were compared to untreated controls and visually evaluated for injury. Plant response ratings, summarized in Table A, are based on a 0 to 100 scale where 0 is no effect and 100 is complete control. A dash (-) response means no test result.

corn (Zea mays) = experiment: as above; conditions: Postemergence; for Plant response rating, Corn: 125 g ai/ha, visual rating after approx. 10 d, 0 to 100 scale (0 no effect, 100 complete control); for Corn plant response rating: 500 g ai/ha, 0 to 100 scale, 0 is no effect, 100 is complete control
Text: as §1, §2

[2] = test system: foxtail, giant (giant foxtail, Setaria faberii); experiment: as above
Text: as §1, §2

kochia (Kochia scoparia) = experiment: as above
Text: as §1, §2

[3] = test system: pigweed (Amaranthus retroflexus); experiment: as above
Text: as §1, §2

[4] = test system: ragweed (common ragweed, Ambrosia elatior); experiment: as above
Text: as §1, §2

[5] = test system: ryegrass, Italian (Italian ryegrass, Lolium multiflorum); experiment: as above
Text: as §1, §2

[6] = test system: wheat (Triticum aestivum); experiment: as above; conditions: Postemergence; for Plant response rating, Wheat: 125 g ai/ha, 0 to 100 scale where 0 is no effect and 100 is complete control; for Wheat plant response rating: 500 g ai/ha, 0 to 100 scale, 0 is no effect, 100 is complete control
Text: as §1, §2

[7] = test system: blackgrass (Alopecurus myosuroides); experiment: Test A greenhouse herbicide test, postemergence; conditions: for Plant response rating, Blackgrass: 125 g ai/ha, visual rating after approx. 10 d, 0 to 100 scale (0 no effect, 100 complete control); for Blackgrass plant response rating: 500 g ai/ha, 0 to 100 scale, 0 is no effect, 100 is complete control
Method in brief: (§3)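 Greenhouse postemergence test: formulated chemicals sprayed on one- to two-leaf plants (2 to 10 cm), grown in loam soil blended with sand. Injury assessed visually about 10 d later against untreated controls, scored 0 (no effect) to 100 (complete control).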

[8] = test system: galium (catchweed bedstraw, Galium aparine); experiment: Test A greenhouse herbicide test, postemergence; conditions: for Plant response rating, Galium: 125 g ai/ha, visual rating after approx. 10 d, 0 to 100 scale (0 no effect, 100 complete control); for Galium plant response rating: 500 g ai/ha, 0 to 100 scale, 0 is no effect, 100 is complete control
Method in brief: as §3

[9] = test system: barnyardgrass (Echinochloa crus-galli); experiment: Test B flooded paddy test; conditions: 250 g ai/ha, Flood; visual rating on scale of 0 to 100 where 0 is no effect and 100 is complete control; 13 to 15 d after treatment
Protocol: (§4) Plant species in the flooded paddy test selected from rice (Oryza sativa), sedge, umbrella (small-flower umbrella sedge, Cyperus difformis), ducksalad (Heteranthera limosa), and barnyardgrass (Echinochloa crus-galli) were grown to the 2-leaf stage for testing. At time of treatment, test pots were flooded to 3 cm above the soil surface, treated by application of test compounds directly to the paddy water, and then maintained at that water depth for the duration of the test. Treated plants and controls were maintained in a greenhouse for 13 to 15 d, after which time all species were compared to controls and visually evaluated. Plant response ratings, summarized in Table B, are based on a scale of 0 to 100 where 0 is no effect and 100 is complete control. A dash (-) response means no test result.

[10] = test system: ducksalad (Heteranthera limosa); experiment: Test B flooded paddy test; conditions: 250 g ai/ha, Flood; visual rating on scale of 0 to 100 where 0 is no effect and 100 is complete control; 13 to 15 d after treatment
Protocol: as §4

rice (Oryza sativa) = experiment: Test B flooded paddy test; conditions: 250 g ai/ha, Flood; visual rating on scale of 0 to 100 where 0 is no effect and 100 is complete control; 13 to 15 d after treatment
Protocol: as §4

[11] = test system: sedge, umbrella (small-flower umbrella sedge, Cyperus difformis); experiment: Test B flooded paddy test; conditions: 250 g ai/ha, Flood; visual rating on scale of 0 to 100 where 0 is no effect and 100 is complete control; 13 to 15 d after treatment
Protocol: as §4

[12] = Postemergence, 125 g ai/ha, visual rating after approx. 10 d, 0 to 100 scale (0 no effect, 100 complete control)
[13] = Postemergence, 500 g ai/ha, 0 to 100 scale, 0 is no effect, 100 is complete control
[14] = Preemergence, 125 g ai/ha, 0 to 100 scale where 0 is no effect and 100 is complete control
[15] = Preemergence, 500 g ai/ha, 0 to 100 scale, 0 no effect, 100 complete control
[16] = Postemergence, 125 g ai/ha, 0 to 100 scale where 0 is no effect and 100 is complete control

## Cn1ncc(O)c(-c2ccc(F)c3ccccc23)c1=O [Compound 24]
[1]; [12]
  Plant response rating, Barnyardgrass: 40
[1]; [13]
  Barnyardgrass plant response rating: 50
[1]; [14]
  Barnyardgrass plant response rating: 30
[1]; [15]
  Plant response rating, Barnyardgrass: 60
Corn (Zea mays)
  Plant response rating, Corn: 0
  Corn plant response rating: 0
[2]; [12]
  Plant response rating, Foxtail, Giant: 10
[2]; [13]
  Foxtail, Giant plant response rating: 60
[2]; [14]
  Foxtail, Giant plant response rating: 60
[2]; [15]
  Plant response rating, Foxtail, Giant: 80
Kochia (Kochia scoparia); [12]
  Plant response rating, Kochia: 70
Kochia (Kochia scoparia); [13]
  Kochia plant response rating: 80
Kochia (Kochia scoparia); [14]
  Kochia plant response rating: 30
Kochia (Kochia scoparia); [15]
  Plant response rating, Kochia: 50
[3]; [12]
  Plant response rating, Pigweed: 70
[3]; [13]
  Pigweed plant response rating: 90
[3]; [14]
  Pigweed plant response rating: 70
[3]; [15]
  Plant response rating, Pigweed: 90
[4]; [12]
  Plant response rating, Ragweed: 30
[4]; [13]
  Ragweed plant response rating: 60
[4]; [14]
  Ragweed plant response rating: 0
[4]; [15]
  Plant response rating, Ragweed: 0
[5]; [16]
  Plant response rating, Ryegrass, Italian: 70
[5]; [13]
  Ryegrass, Italian plant response rating: 90
[5]; [14]
  Ryegrass, Italian plant response rating: 80
[5]; [15]
  Plant response rating, Ryegrass, Italian: 80
[6]
  Plant response rating, Wheat: 30
  Wheat plant response rating: 70
[7]
  Plant response rating, Blackgrass: 30
  Blackgrass plant response rating: 50
[8]
  Plant response rating, Galium: 80
  Galium plant response rating: 100
[9]
  Plant response rating, Barnyardgrass: 0
[10]
  Plant response rating, Ducksalad: 0
Rice (Oryza sativa)
  Plant response rating, Rice: 0
[11]
  Plant response rating, Sedge, Umbrella: 0

## Cc1ccc2c(c1)c(-c1c(O)c(C)nn(C)c1=O)c(C)n2C [Compound 31]
[1]; [12]
  Plant response rating, Barnyardgrass: 0
[1]; [13]
  Barnyardgrass plant response rating: 10
[1]; [14]
  Barnyardgrass plant response rating: 0
[1]; [15]
  Plant response rating, Barnyardgrass: 0
Corn (Zea mays)
  Plant response rating, Corn: 0
  Corn plant response rating: 0
[2]; [12]
  Plant response rating, Foxtail, Giant: 0
[2]; [13]
  Foxtail, Giant plant response rating: 10
[2]; [14]
  Foxtail, Giant plant response rating: 0
[2]; [15]
  Plant response rating, Foxtail, Giant: 0
Kochia (Kochia scoparia); [12]
  Plant response rating, Kochia: 0
Kochia (Kochia scoparia); [13]
  Kochia plant response rating: 0
Kochia (Kochia scoparia); [14]
  Kochia plant response rating: 0
Kochia (Kochia scoparia); [15]
  Plant response rating, Kochia: 0
[3]; [12]
  Plant response rating, Pigweed: 20
[3]; [13]
  Pigweed plant response rating: 40
[3]; [14]
  Pigweed plant response rating: 0
[3]; [15]
  Plant response rating, Pigweed: 0
[4]; [12]
  Plant response rating, Ragweed: 0
[4]; [13]
  Ragweed plant response rating: 20
[4]; [14]
  Ragweed plant response rating: 0
[4]; [15]
  Plant response rating, Ragweed: 30
[5]; [16]
  Plant response rating, Ryegrass, Italian: 0
[5]; [13]
  Ryegrass, Italian plant response rating: 0
[5]; [14]
  Ryegrass, Italian plant response rating: 0
[5]; [15]
  Plant response rating, Ryegrass, Italian: 0
[6]
  Plant response rating, Wheat: 0
  Wheat plant response rating: 0
[7]
  Plant response rating, Blackgrass: 0
  Blackgrass plant response rating: 20
[8]
  Plant response rating, Galium: 20
  Galium plant response rating: 70
[9]
  Plant response rating, Barnyardgrass: 0
[10]
  Plant response rating, Ducksalad: 0
Rice (Oryza sativa)
  Plant response rating, Rice: 0
[11]
  Plant response rating, Sedge, Umbrella: 0
